Data published in patent US20080113938A1, “ACCELERATOR FOR MINERAL ABSORPTION AND USE THEREOF” (KABUSHIKI KAISHA HAYASHIBARA SEIBUTSU KAGAKU KENKYUJO, priority 2003, published 2008).

Assay: Remaining cyclic tetrasaccharide in contents of alimentary canal and excrement of rats
Format: in vivo, Wister rats
Conditions: for Remaining percentage of cyclic tetrasaccharide in content of appendix / Remaining percentage of cyclic tetrasaccharide in content of intestinum ileum / Remaining percentage of cyclic tetrasaccharide in excrement: relative to chromium marker
From the text: Forty of Wister rats weighing 110 to 120 g (five-weeks aged male, commercialized by Charles River Japan Inc., Yokohama, Japan) were bred with a feed containing ingredients (%) shown in Table 1 for one week in order to be familiarized. The familiarized rats were randomly divided into four groups with ten rats each. Each group was experimentally bred for eight weeks with either a feed without cyclic tetrasaccharide shown in Table 1 (hereinafter, it is called as “basic feed”), or another feed of basic feed supplemented with 1%, 2% or 5% on a dry solid basis, of cyclic tetrasaccharide in a crystalline anhydrous powder form with a purity of 99.5%, prepared in the following Example A-3. These basic feed and three kinds of feeds with cyclic tetrasaccharide were prepared to contain 44.75% of the total amount of cyclic tetrasaccharide and corn starch in each feed. From one week before the end of the breeding test, in order to determine the metabolism of calcium, magnesium, iron, sodium, potassium and phosphorus (hereinafter, may be called “minerals” in all), rats in the all groups were fed with the four types of feeds supplemented with 0.5% of chromium oxide as a non-absorbed marker for the minerals. The rats were bred at 25° C. in a manner of freely allowing to take feeds and water under a condition of 12 hours regular interval between of light and shade. After completion of experimental breeding, all rats were individually weighed to calculate the average of weight and further calculate the rate of increased weight for each group.
Two days before the end of the breeding test, rats were placed into a gauge for measuring metabolism to collect their excrement in two days. The resulting excrement was subjected to the measurement of the contents of cyclic tetrasaccharide, each mineral, and chromium. After the breeding test, the rats were anatomized in an anesthetized condition to take out their alimentary canals including jejunum, intestinum ileum, appendix and colon/rectum. After the resulting alimentary canals were weighed, their contents were also weighed and subjected to the measurement of the amount of cyclic tetrasaccharide, minerals and chromium. The rats, which had been taken out their alimentary canals, were dislocated at their cervical vertebrae and taken out their femurs from right legs. The resulting femurs were subjected to the measurement of the amount of ashes, calcium, magnesium and phosphorus. The following(s) explain the methods of quantitative analysis of cyclic tetrasaccharide and the methods of measurement of minerals and chromium.
One gram of a feed was admixed with 5 ml of 80% ethanol heated at 85° C. under reflux for 15 minutes to extract saccharides. The resulting saccharide sample was subjected to TMS derivatization in a usual manner. Three microliters of the sample was applied to a gas chromatography (“GC-16™”, commercialized by Shimazu Corporation, Kyoto, Japan) equipped with OV-17 packed column (“2% Silicone, OV-17 Chromosorb W/AW DMSC 80-100 mesh, 3 mmID×2 m, SUS”, produced by GL Science Corporation). The inner column temperature was kept at 160° C. for two minutes, and heated up to 320° C. at a rate of 7.5° C./min. The amount of cyclic tetrasaccharide was quantified by using nitrogen gas as a carrier (35 ml/min). While, in order to quantify the amounts of the contents of jejunum, intestinum ileum, appendix, colon/rectum and excrement, 0.05 g of each sample was weighed in a micro tube for gas chromatography and dried in a desiccator with phosphorus pentoxide. The resulting samples were subjected to TMS derivatization in a usual manner and quantified by gas chromatography.
The remaining percentages (%) were calculated using the following numerical formula, based on the rate of the amount of cyclic tetrasaccharide to chromium in each feed and the rate of those in the contents or excrement in consideration of that chromium is never absorbed by living bodies; […]

[1] = 1% cyclic tetrasaccharide in feed
[2] = 2% cyclic tetrasaccharide in feed
[3] = 5% cyclic tetrasaccharide in feed
[4] = feed supplemented with 1%, 2% or 5% of cyclic tetrasaccharide

Amount of cyclic tetrasaccharide in content of appendix [1]: 0.0 mg/g
Amount of cyclic tetrasaccharide in content of intestinum ileum [1]: 60.5 mg/g
Amount of cyclic tetrasaccharide in excrement [1]: 0.0 mg/g
Remaining percentage of cyclic tetrasaccharide in content of appendix [1]: 0%
Remaining percentage of cyclic tetrasaccharide in content of intestinum ileum [1]: 95%
Remaining percentage of cyclic tetrasaccharide in excrement [1]: 0%
Amount of cyclic tetrasaccharide in content of appendix [2]: 0.0 mg/g
Amount of cyclic tetrasaccharide in content of intestinum ileum [2]: 184.1 mg/g
Amount of cyclic tetrasaccharide in excrement [2]: 0.0 mg/g
Remaining percentage of cyclic tetrasaccharide in content of appendix [2]: 0%
Remaining percentage of cyclic tetrasaccharide in content of intestinum ileum [2]: 95%
Remaining percentage of cyclic tetrasaccharide in excrement [2]: 0%
Amount of cyclic tetrasaccharide in content of appendix [3]: 0.0 mg/g
Amount of cyclic tetrasaccharide in content of intestinum ileum [3]: 298.0 mg/g
Amount of cyclic tetrasaccharide in excrement [3]: 0.0 mg/g
Remaining percentage of cyclic tetrasaccharide in content of appendix [3]: 0%
Remaining percentage of cyclic tetrasaccharide in content of intestinum ileum [3]: 90%
Remaining percentage of cyclic tetrasaccharide in excrement [3]: 0%
cyclic tetrasaccharide in the appendix and excrement [4]: not detected at all
cyclic tetrasaccharide remained up to intestinum ileum without digestion [4]: at least 90%
Structure (SMILES): OC[C@H]1O[C@@H]2OC[C@H]3O[C@H](O[C@@H]4[C@@H](O)[C@@H](OC[C@H]5O[C@H](O[C@H]([C@H]2O)[C@@H]1O)[C@H](O)[C@@H](O)[C@@H]5O)O[C@H](CO)[C@H]4O)[C@H](O)[C@@H](O)[C@@H]3O [cyclic tetrasaccharide, cyclo{>6)-α-D-glucopyranosyl-(1>3)-α-D-glucopyranosyl-(1>6)-α-D-glucopyranosyl-(1>3)-α-D-glucopyranosyl-(1>}]
